Measured values: PMC8070514, “Antibacterial and Antibiofilm Activities of Novel Antimicrobial Peptides against Multidrug-Resistant Enterotoxigenic Escherichia Coli” (International Journal of Molecular Sciences, 2021)
Ends that are not written are not given here.

Legend:
[1] = tested on: MDR ETEC strain (clinical isolate); assay: Resistance of the MDR ETEC strain to conventional antibiotics; assay type: cell-based, Escherichia coli; settings: method not given
Method: (§1) The MDR ETEC strain used in this study was a clinical isolate kindly provided by our co-author, Dr. Hui-Wen Chang from Department of Veterinary Medicine and Graduate Institute of Molecular and Comparative Pathobiology, School of Veterinary Medicine, National Taiwan University. […] Glycerol stocks (20%, v/v) were maintained at −86 °C for long-term storage.

[2] = tested on: MDR ETEC (multidrug-resistant enterotoxigenic Escherichia coli); settings: MDR ETEC clinical isolate; 96-well microtiter plates, 10^4 CFU/mL inoculum, 48 h at 37 °C, absorbance 600 nm; lowest concentration that completely inhibits visible growth
Method: as §1
Cultures were examined for growth after 48 h incubation at 37 °C, and the absorbance at 600 nm was measured.

[3] = Hemolytic activity, minimal hemolysis concentration (MHC); assay type: cell-based; settings: method not described
[4] = tested on: intestinal porcine epithelial cell line-1 (IPEC-1); assay: Cell viability (MTT) assay, IPEC-1; assay type: cell-based; settings: IPEC-1, 24 h exposure
Method: (§2) The IPEC-1 and IPEC-J2 cell lines were kindly provided by Dr. Je-Ruei Liu from Institute of Biotechnology and Department of Animal Science and Technology, National Taiwan University. The culture conditions and protocols were according to Koh et al. with slight modifications. Both IPEC-1 and IPEC-J2 cells were seeded on 9-cm cell culture dishes and were cultured and maintained in Dulbecco’s modified Eagle medium (DMEM)/nutrient mixture F-12 (GeneDireX, Taipei, Taiwan) supplemented with 10% fetal bovine serum (FBS; Hyclone, Cytiva, Washington DC, USA). The cultures were maintained in a humidified incubator in an atmosphere of 5% CO2 at 37 °C. After 4 to 5 days of culturing, both cell lines became confluent. Cell monolayers were washed with 3–5 mL Dulbecco’s phosphate buffered saline (DPBS, Amresco, Solon, OH, USA) and trypsinized with 1× trypsin-EDTA. The detached cells were pelleted at 200× g for 5 min, re-suspended in antibiotic-free medium, and used for subsequent adherence assays. […]
(§3) The viability of both IPEC-1 and IPEC-J2 cells after treated with AMP Q4-15a-1 was evaluated using 3-(4,5-dimethylthiazol-2-yl)-2,5-diphenyltetrazolium bromide (MTT, Amresco, Solon, OH, USA) assays performed in triplicate in three independent experiments. […] Absorbance at 570 nm of the maximum was detected by a multimode microplate reader SpectraMax M2 (Molecular Devices, San Jose, CA, USA). […]

[5] = tested on: intestinal porcine epithelial cell line-J2 (IPEC-J2); assay: Cell viability (MTT) assay, IPEC-J2; assay type: cell-based; settings: IPEC-J2, 24 h exposure
Method: as §2, §3

[6] = tested on: Acinetobacter baumannii biofilms; settings: 32 and 64 μg/mL; cited from earlier work
From the text: Biofilm is a microbial community that adheres to the surface of various substances and encapsulates themselves in an autologous extracellular matrix. It is a critical issue to manage biofilms in clinical treatment. The matrix of the biofilm plays an important role in the mechanism of resistance to antibiotics, which constitutes a barrier to delay or prevent the interaction of antibiotics with microbial cells, depending on the extracellular polymeric substances and the charge of antimicrobial agents. The latter can be isolated or repelled, thereby reducing its effect on biofilms [[36],[3 ...

Compound	Susceptibility of the MDR ETEC strain [1]	also measured
CO/N=C(\C(=O)N[C@@H]1C(=O)N2C(C(=O)O)=C(COC(N)=O)CS[C@H]12)c1ccco1 [cefuroxime]	resistant	
GANAAKKFATIAKKFINYLW [GW-Q4]		MIC [2]: 32 µg/mL; MHC (minimal hemolysis concentration) [3]: 128 µg/mL
KKFATIAKKFINKLW-NH2 [Peptide Q4-15a-1]		MIC [2]: 4 µg/mL; IC20 (cell viability, MTT) [4]: around 100 μg/mL; IC20 (cell viability, MTT) [5]: around 100 μg/mL; MHC (minimal hemolysis concentration) [3]: 256 µg/mL
O=C(N[C@H](CO)[C@H](O)c1ccc([N+](=O)[O-])cc1)C(Cl)Cl [chloramphenicol]	resistant	
CC(C)(O/N=C(\C(=O)N[C@@H]1C(=O)N2C(C(=O)[O-])=C(C[n+]3ccccc3)CS[C@H]12)c1csc(N)n1)C(=O)O [ceftazidime]	resistant	
CC1(C)S[C@@H]2[C@H](NC(=O)[C@H](N)c3ccccc3)C(=O)N2[C@H]1C(=O)O [ampicillin]	resistant	
polymyxin B	moderately susceptible	
penicillin	resistant	
KKFATIAKKFINYLW-NH2 [Peptide Q4-15a]		MIC [2]: 4 µg/mL; MHC (minimal hemolysis concentration) [3]: 16 µg/mL
CCn1cc(C(=O)O)c(=O)c2cc(F)c(N3CCNCC3)cc21 [norfloxacin]	resistant	
LL37		Effect on two Acinetobacter baumannii biofilms [6]: inhibitory effect
CN(C)[C@@H]1C(O)=C(C(N)=O)C(=O)[C@@]2(O)C(O)=C3C(=O)c4c(O)cccc4[C@@](C)(O)[C@H]3C[C@@H]12 [tetracycline]	resistant	
CNC(C)C1CCC(N)C(OC2C(N)CC(N)C(OC3OCC(C)(O)C(NC)C3O)C2O)O1 (stereo not drawn) [gentamicin]	resistant	
KKFATIAKKFINKLW [Peptide Q4-15-1]		MIC [2]: 8 µg/mL; MHC (minimal hemolysis concentration) [3]: 256 µg/mL
KKFATIAKKFINYLW [Peptide Q4-15]		MIC [2]: 8 µg/mL; MHC (minimal hemolysis concentration) [3]: 128 µg/mL
NC[C@H]1O[C@H](O[C@H]2[C@H](O)[C@@H](O[C@H]3O[C@H](CO)[C@@H](O)[C@H](N)[C@H]3O)[C@H](N)C[C@@H]2N)[C@H](N)C[C@@H]1O [tobramycin]	resistant	

Compound	Susceptibility of the MDR ETEC strain [1]	also measured
[H]/N=C(/N)N[C@H]1[C@H](O)[C@@H](O)[C@H](O[C@@H]2O[C@@H](C)[C@](O)(C=O)[C@H]2O[C@@H]2O[C@@H](CO)[C@H](O)[C@@H](O)[C@@H]2NC)[C@@H](N/C(N)=N\[H])[C@@H]1O [streptomycin]	resistant	
CC(=O)OCC1=C(C(=O)O)N2C(=O)[C@@H](NC(=O)Cc3cccs3)[C@H]2SC1 [cephalothin]	resistant	
CC1COc2c(N3CCN(C)CC3)c(F)cc3c(=O)c(C(=O)O)cn1c23 (stereo not drawn) [ofloxacin]	resistant	
CN(C)c1ccc(O)c2c1C[C@H]1C[C@H]3[C@H](N(C)C)C(O)=C(C(N)=O)C(=O)[C@@]3(O)C(O)=C1C2=O [minocycline]	resistant	
KKFATIAKKFINWLW [Peptide Q4-15-2]		MIC [2]: 4 µg/mL; MHC (minimal hemolysis concentration) [3]: 32 µg/mL
CC1CCc2cc(F)cc3c(=O)c(C(=O)O)cn1c23 (stereo not drawn) [flumequine]	resistant	
C[C@H]1c2cccc(O)c2C(=O)C2=C(O)[C@]3(O)C(=O)C(C(N)=O)=C(O)[C@@H](N(C)C)[C@@H]3[C@@H](O)[C@@H]21 [doxycycline]	resistant	
KKFATIAKKFINWLW-NH2 [Peptide Q4-15a-2]		MIC [2]: 2 µg/mL; MHC (minimal hemolysis concentration) [3]: 16 µg/mL
O=C1CN(/N=C/c2ccc([N+](=O)[O-])o2)C(=O)N1 [nitrofurantoin]	moderately susceptible	
C=CC1=C(C(=O)O)N2C(=O)[C@@H](NC(=O)/C(=N\OCC(=O)O)c3csc(N)n3)[C@H]2SC1 [cefixime]	resistant	
CCN1CCN(C(=O)N[C@@H](C(=O)N[C@@H]2C(=O)N3[C@@H]2SC(C)(C)[C@@H]3C(=O)O)c2ccccc2)C(=O)C1=O [piperacillin]	resistant	
CC1=C(C(=O)O)N2C(=O)[C@@H](NC(=O)[C@H](N)c3ccc(O)cc3)[C@H]2SC1 [cefadroxil]	resistant	
GANAAKKFATIAKKFINYLW-NH2 [GW-Q4a]		MIC [2]: 8 µg/mL; MHC (minimal hemolysis concentration) [3]: 32 µg/mL
NC[C@H]1O[C@H](O[C@H]2[C@H](O)[C@@H](O[C@H]3O[C@H](CO)[C@@H](O)[C@H](N)[C@H]3O)[C@H](N)C[C@@H]2N)[C@H](O)[C@@H](O)[C@@H]1O [kanamycin]	resistant	
CCn1cc(C(=O)O)c(=O)c2ccc(C)nc21 [nalidixic acid]	resistant	
CCN1CCN(c2cc3c(cc2F)c(=O)c(C(=O)O)cn3C2CC2)CC1 [enrofloxacin]	resistant	
